According to patent US7402548B2, “Benzoxazole compounds, process for producing the same and herbicides” (Kyoyu Agri Co., Ltd., priority 2000, dated 2008):

Assays:
green foxtail [1] = test: Soil treatment test for upland field; format: in vivo, Setaria viridis; set-up: key: 0 = normal development, 5 = all killed; conditions: 500 g/ha, 3 weeks, glass house 25° C.
Outline: (§1)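 Scored on a 0–5 scale (0 normal growth, 5 all killed) relative to untreated plots after 3 weeks in a glasshouse averaging 25° C. Compound applied as surfactant-containing (0.05%) aqueous dilution of wettable powder onto the surface of sown Ube alluvial soil at 500 g/ha.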

blackgrass = test: Soil treatment test for upland field; format: in vivo, Alopecurus aegualis; set-up: key: 0 = normal development, 5 = all killed; conditions: 500 g/ha, 3 weeks, glass house 25° C.
Outline: as §1

bulrush = test: Herbicidal test for paddy field; format: in vivo, Scrips juncoides; conditions: 500 g/ha, dropwise addition to paddy water at 1.5 leaf stage of barnyard grass; glass house 25° C., 3 weeks; rank 0-5 vs non-treated district; further: key: 0: normal development; 1: Less damaged; 2: Slightly damaged; 3: Moderately damaged; 4: Severely damaged; 5: All killed
Outline: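 Wettable-powder formulations in water with 0.05% surfactant were dripped onto flooded (3 cm) Ube alluvial-soil pots at 500 g/ha, applied at barnyard grass 1.5-leaf stage. Plants were kept in a glasshouse at 25° C. for 3 weeks. Damage was scored 0 (normal) to 5 (all killed) versus untreated plants.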

wheat = test: Foliar spread test for upland field; format: in vivo; set-up: key: 0 = normal development, 5 = all killed (6 ranks vs. untreated); conditions: foliar spray, 500 ppm, 3 weeks, glass house 25° C.
Outline: (§2)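 Scores on a 0–5 scale (0 normal development, 5 all killed), relative to untreated controls, were taken 3 weeks post-treatment in a 25 °C glass house. Treatment was a uniform foliar spray at 500 ppm (0.5% surfactant) onto roughly 2-week-old soil-grown plants.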

corn = test: Foliar spread test for upland field; format: in vivo; set-up: key: 0 = normal development, 5 = all killed (6 ranks vs. untreated); conditions: foliar spray, 500 ppm, 3 weeks, glass house 25° C.
Outline: as §2

sugar beat = test: Foliar spread test for upland field; format: in vivo; set-up: key: 0 = normal development, 5 = all killed (6 ranks vs. untreated); conditions: foliar spray, 500 ppm, 3 weeks, glass house 25° C.
Outline: as §2

young rice plant = test: Herbicidal test for paddy field; format: in vivo; conditions: 500 g/ha, dropwise addition to paddy water at 1.5 leaf stage of barnyard grass; glass house 25° C., 3 weeks; rank 0-5 vs non-treated district; further: key: 0: normal development; 1: Less damaged; 2: Slightly damaged; 3: Moderately damaged; 4: Severely damaged; 5: All killed
Protocol: Then, the pots were filled with water to a depth of 3 cm. […] These plants were controlled in a glass house at an average temperature of 25° C. for 3 weeks, and then herbicidal effects thereof were investigated. The herbicidal effects are evaluated according to the following 6 ranks as compared with non-treated district. […] Incidentally, “-” in the column means not investigated.

velvetleaf = test: Soil treatment test for upland field; format: in vivo, Abutilon theophrasti; set-up: key: 0 = normal development, 5 = all killed; conditions: 500 g/ha, 3 weeks, glass house 25° C.
Outline: as §1

livid amaranth = test: Foliar spread test for upland field; format: in vivo, Amaranthus lividus; set-up: key: 0 = normal development, 5 = all killed (6 ranks vs. untreated); conditions: foliar spray, 500 ppm, 3 weeks, glass house 25° C.
Outline: as §2

morning glory = test: Soil treatment test for upland field; format: in vivo, Ipomoea spps.; set-up: key: 0 = normal development, 5 = all killed; conditions: 500 g/ha, 3 weeks, glass house 25° C.
Outline: as §1

soybean = test: Soil treatment test for upland field; format: in vivo; set-up: key: 0 = normal development, 5 = all killed; conditions: 500 g/ha, 3 weeks, glass house 25° C.
Outline: as §1

green foxtail [2] = test: Foliar spread test for upland field; format: in vivo, Setaria viridis; set-up: key: 0 = normal development, 5 = all killed (6 ranks vs. untreated); conditions: foliar spray, 500 ppm, 3 weeks, glass house 25° C.
Outline: as §2

cotton = test: Soil treatment test for upland field; format: in vivo; conditions: 500 g/ha, 3 weeks, glass house 25° C. Further: key: 0: normal development; 1: Less damaged; 2: Slightly damaged; 3: Moderately damaged; 4: Severely damaged; 5: All killed.
Outline: as §1

Structure (SMILES)	Effects Green foxtail (green foxtail [1])	Effects Blackgrass (blackgrass)	Effects Bulrush (bulrush)	Effects Wheat (wheat)	Effects Corn (corn)	Effects Sugar beat (sugar beat)	Effects Young rice plant (young rice plant)	Effects Velvetleaf (velvetleaf)	Effects Livid amaranth (livid amaranth)	Effects Morning glory (morning glory)	Effects Soybean (soybean)	Effects Green foxtail (green foxtail [2])	Effects Sotton (cotton)
FC(F)(F)c1cccc(Oc2cccc(-c3nc4cc(Cl)ccc4o3)n2)c1 [I-a-3, 6-(5-chlorobenzoxazol-2-yl)-2-(3-trifluoromethylphenoxy)pyridine]	5	4	0	1	1	4	2	3	5	3	3	3	
Fc1ccc2nc(-c3cccc(Oc4cccc(C(F)(F)F)c4)n3)oc2c1 [I-a-6, 6-(6-fluorobenzoxazol-2-yl)-2-(3-trifluoromethylphenoxy)pyridine]	5	5		3	3	5	3	2	5	5		5	1
Fc1ccc2nc(-c3cccc(Oc4ccc(F)c(C(F)(F)F)c4)n3)oc2c1 [I-a-7]	5	4	0	2	1	5		0	5	1	2	3	0
